Source: PubChem BioAssay (NCI)
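Assay format: 96-well plates, 48-hour exposure. TGI: total growth inhibition.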

What was measured:
Experiment in all cases: growth of human tumour cells (NCI), 48 h
SW-620 colon = tested on: SW-620 colon
786-0 renal = tested on: 786-0 renal
NCI-H460 lung = tested on: NCI-H460 lung
MCF7 breast = tested on: MCF7 breast
MALME-3M melanoma = tested on: MALME-3M melanoma
ACHN renal = tested on: ACHN renal
SF-268 CNS = tested on: SF-268 CNS
UO-31 renal = tested on: UO-31 renal
COLO 205 colon = tested on: COLO 205 colon
RPMI-8226 leukemia = tested on: RPMI-8226 leukemia
OVCAR-5 ovarian = tested on: OVCAR-5 ovarian
NCI/ADR-RES ovarian = tested on: NCI/ADR-RES ovarian
MOLT-4 leukemia = tested on: MOLT-4 leukemia
KM12 colon = tested on: KM12 colon
NCI-H522 lung = tested on: NCI-H522 lung
SF-539 CNS = tested on: SF-539 CNS
OVCAR-8 ovarian = tested on: OVCAR-8 ovarian
RXF 393 renal = tested on: RXF 393 renal
BT-549 breast = tested on: BT-549 breast
IGROV1 ovarian = tested on: IGROV1 ovarian
SK-MEL-28 melanoma = tested on: SK-MEL-28 melanoma
UACC-257 melanoma = tested on: UACC-257 melanoma
T-47D breast = tested on: T-47D breast
MDA-MB-435 = tested on: MDA-MB-435
HCT-116 colon = tested on: HCT-116 colon
DU-145 prostate = tested on: DU-145 prostate
MDA-MB-231 breast = tested on: MDA-MB-231 breast
SF-295 CNS = tested on: SF-295 CNS
NCI-H23 lung = tested on: NCI-H23 lung
SNB-75 CNS = tested on: SNB-75 CNS
EKVX NSCLC = tested on: EKVX NSCLC
SR leukemia = tested on: SR leukemia
LOX IMVI melanoma = tested on: LOX IMVI melanoma
M14 melanoma = tested on: M14 melanoma
TK-10 renal = tested on: TK-10 renal
UACC-62 melanoma = tested on: UACC-62 melanoma
MDA-N = tested on: MDA-N
HOP-62 NSCLC = tested on: HOP-62 NSCLC
CCRF-CEM leukemia = tested on: CCRF-CEM leukemia
HL-60(TB) leukemia = tested on: HL-60(TB) leukemia
HCT-15 colon = tested on: HCT-15 colon
SK-MEL-5 melanoma = tested on: SK-MEL-5 melanoma
HS 578T breast = tested on: HS 578T breast
OVCAR-3 ovarian = tested on: OVCAR-3 ovarian
CAKI-1 renal = tested on: CAKI-1 renal
K-562 leukemia = tested on: K-562 leukemia
SK-MEL-2 melanoma = tested on: SK-MEL-2 melanoma
OVCAR-4 ovarian = tested on: OVCAR-4 ovarian
SNB-19 CNS = tested on: SNB-19 CNS
SK-OV-3 ovarian = tested on: SK-OV-3 ovarian
SN12C renal = tested on: SN12C renal
HOP-92 NSCLC = tested on: HOP-92 NSCLC
A498 renal = tested on: A498 renal
A549 NSCLC = tested on: A549 NSCLC
PC-3 prostate = tested on: PC-3 prostate
U251 CNS = tested on: U251 CNS
HT29 colon = tested on: HT29 colon
NCI-H226 lung = tested on: NCI-H226 lung

SMILES: CC(=O)OC1CC2(C)C(=CC1C1SCCS1)CCC1C2CCC2(C)C(OC(C)=O)CCC12 (centres undefined)
- TGI (SW-620 colon): > 100 µM
- TGI (786-0 renal): > 100 µM
- TGI (NCI-H460 lung): > 100 µM
- TGI (MCF7 breast): > 100 µM
- TGI (MALME-3M melanoma): > 100 µM
- TGI (ACHN renal): > 100 µM
- TGI (SF-268 CNS): > 100 µM
- TGI (UO-31 renal): > 100 µM
- TGI (COLO 205 colon): > 100 µM
- TGI (RPMI-8226 leukemia): > 100 µM
- TGI (OVCAR-5 ovarian): > 100 µM
- TGI (NCI/ADR-RES ovarian): > 100 µM
- TGI (MOLT-4 leukemia): > 100 µM
- TGI (KM12 colon): > 100 µM
- TGI (NCI-H522 lung): > 100 µM
- TGI (SF-539 CNS): > 100 µM
- TGI (OVCAR-8 ovarian): > 100 µM
- TGI (RXF 393 renal): 67.3 µM
- TGI (BT-549 breast): > 100 µM
- TGI (IGROV1 ovarian): > 100 µM
- TGI (SK-MEL-28 melanoma): > 100 µM
- TGI (UACC-257 melanoma): > 100 µM
- TGI (T-47D breast): > 100 µM
- TGI (MDA-MB-435): > 100 µM
- TGI (HCT-116 colon): > 100 µM
- TGI (DU-145 prostate): > 100 µM
- TGI (MDA-MB-231 breast): > 100 µM
- TGI (SF-295 CNS): 90 µM
- TGI (NCI-H23 lung): > 100 µM
- TGI (SNB-75 CNS): 63.1 µM
- TGI (EKVX NSCLC): > 100 µM
- TGI (SR leukemia): > 100 µM
- TGI (LOX IMVI melanoma): > 100 µM
- TGI (M14 melanoma): > 100 µM
- TGI (TK-10 renal): > 100 µM
- TGI (UACC-62 melanoma): > 100 µM
- TGI (MDA-N): > 100 µM
- TGI (HOP-62 NSCLC): > 100 µM
- TGI (CCRF-CEM leukemia): > 100 µM
- TGI (HL-60(TB) leukemia): > 100 µM
- TGI (HCT-15 colon): > 100 µM
- TGI (SK-MEL-5 melanoma): > 100 µM
- TGI (HS 578T breast): 49.9 µM
- TGI (OVCAR-3 ovarian): > 100 µM
- TGI (CAKI-1 renal): > 100 µM
- TGI (K-562 leukemia): > 100 µM
- TGI (SK-MEL-2 melanoma): > 100 µM
- TGI (OVCAR-4 ovarian): > 100 µM
- TGI (SNB-19 CNS): > 100 µM
- TGI (SK-OV-3 ovarian): > 100 µM
- TGI (SN12C renal): > 100 µM
- TGI (HOP-92 NSCLC): > 100 µM
- TGI (A498 renal): > 100 µM
- TGI (A549 NSCLC): > 100 µM
- TGI (PC-3 prostate): > 100 µM
- TGI (U251 CNS): > 100 µM
- TGI (HT29 colon): > 100 µM
- TGI (NCI-H226 lung): > 100 µM

SMILES: NS(=O)(=O)c1ccc(-c2ccc([As](=O)(O)O)cc2)cc1
- TGI (SW-620 colon): > 100 µM
- TGI (786-0 renal): > 100 µM
- TGI (NCI-H460 lung): > 100 µM
- TGI (MCF7 breast): > 100 µM
- TGI (MALME-3M melanoma): > 100 µM
- TGI (ACHN renal): > 100 µM
- TGI (SF-268 CNS): > 100 µM
- TGI (UO-31 renal): > 100 µM
- TGI (COLO 205 colon): > 100 µM
- TGI (RPMI-8226 leukemia): > 100 µM
- TGI (OVCAR-5 ovarian): > 100 µM
- TGI (NCI/ADR-RES ovarian): > 100 µM
- TGI (MOLT-4 leukemia): > 100 µM
- TGI (KM12 colon): > 100 µM
- TGI (NCI-H522 lung): > 100 µM
- TGI (SF-539 CNS): > 100 µM
- TGI (OVCAR-8 ovarian): > 100 µM
- TGI (RXF 393 renal): > 100 µM
- TGI (BT-549 breast): > 100 µM
- TGI (IGROV1 ovarian): > 100 µM
- TGI (SK-MEL-28 melanoma): > 100 µM
- TGI (UACC-257 melanoma): > 100 µM
- TGI (T-47D breast): > 100 µM
- TGI (MDA-MB-435): > 100 µM
- TGI (HCT-116 colon): > 100 µM
- TGI (DU-145 prostate): > 100 µM
- TGI (MDA-MB-231 breast): > 100 µM
- TGI (SF-295 CNS): > 100 µM
- TGI (NCI-H23 lung): > 100 µM
- TGI (SNB-75 CNS): > 100 µM
- TGI (EKVX NSCLC): > 100 µM
- TGI (SR leukemia): > 100 µM
- TGI (LOX IMVI melanoma): > 100 µM
- TGI (M14 melanoma): > 100 µM
- TGI (TK-10 renal): > 100 µM
- TGI (UACC-62 melanoma): > 100 µM
- TGI (MDA-N): > 100 µM
- TGI (HOP-62 NSCLC): > 100 µM
- TGI (HL-60(TB) leukemia): > 100 µM
- TGI (HCT-15 colon): > 100 µM
- TGI (SK-MEL-5 melanoma): > 100 µM
- TGI (HS 578T breast): > 100 µM
- TGI (OVCAR-3 ovarian): > 100 µM
- TGI (CAKI-1 renal): > 100 µM
- TGI (K-562 leukemia): > 100 µM
- TGI (SK-MEL-2 melanoma): > 100 µM
- TGI (OVCAR-4 ovarian): > 100 µM
- TGI (SNB-19 CNS): > 100 µM
- TGI (SK-OV-3 ovarian): > 100 µM
- TGI (SN12C renal): > 100 µM
- TGI (HOP-92 NSCLC): > 100 µM
- TGI (A549 NSCLC): > 100 µM
- TGI (PC-3 prostate): > 100 µM
- TGI (U251 CNS): > 100 µM
- TGI (HT29 colon): > 100 µM
- TGI (NCI-H226 lung): > 100 µM
